Measurements as given in article PMC8146939 (Biomedicines, 2021).

Target: T1, GIRK2 (Homo sapiens, UniProt P48051)
T1 construct: gene KCNJ6; homotetramer GIRK2
T1 sequence (P48051 1-423): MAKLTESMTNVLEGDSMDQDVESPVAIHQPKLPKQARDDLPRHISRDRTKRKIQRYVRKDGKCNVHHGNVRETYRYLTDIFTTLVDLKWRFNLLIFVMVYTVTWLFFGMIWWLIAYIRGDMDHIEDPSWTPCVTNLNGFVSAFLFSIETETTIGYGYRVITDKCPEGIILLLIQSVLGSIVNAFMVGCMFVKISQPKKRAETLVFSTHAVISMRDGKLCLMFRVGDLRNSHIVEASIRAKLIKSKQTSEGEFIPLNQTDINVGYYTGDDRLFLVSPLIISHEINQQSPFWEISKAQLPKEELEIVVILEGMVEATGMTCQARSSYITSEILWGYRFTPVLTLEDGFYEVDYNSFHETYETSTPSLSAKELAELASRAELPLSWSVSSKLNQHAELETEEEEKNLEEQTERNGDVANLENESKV
Assay: two-electrode voltage clamp in Xenopus oocytes expressing homotetrameric GIRK2, single concentration […]
Format: cell-based
Conditions: read-out: % reduction in inward K+ currents at 10 μM

Compound `Cc1c(C(=O)c2cccc3ccccc23)c2cccc3c2n1[C@H](CN1CCOCC1)CO3` [WIN55,212-2] has an inhibition at 10 µM of 8.91 ± 1.68%.
